Results as given in patent publication US6355815B1, “Method of producing hydrogen peroxide and reaction promoters therefor” (Degussa AG, priority 1998, dated 2002).

Tests used:
[1] = Oxidation stability of the quinone (oxygen, radical initiator, 150° C.); type: physicochemical; details: 0.04 mole quinone in 100 ml 1,2-dichlorobenzene, 10 mg azo-bis-isobutyronitrile, excess oxygen, after 24 h
Experimental: After the addition of 10 mg azo-bis-isobutyronitrile as radical initiator the mixture was agitated under excess of oxygen at 150° C. with a gassing agitator. After 24 h the quinone content was determined by chromatography.

[2] = Maximum H2O2 capacity in continuous cyclic anthraquinone process test system; details: compared with EAQ
Experimental: A working solution consisting of 75% by volume aromatic benzine (C9/C10-alkyl aromatic mixture), 25% by volume tris (2-ethylhexylphosphate), 0.11 mol/l 2-ethylanthraquinone, 0.29 mol/l 2-ethyltetrahydroanthraquinone, 0.13 mol/l 2-isohexylanthraquinone and 0.12 mol/l 2-isohexyltetrahydroanthraquinone was tested in a test system for the cyclic process of the anthraquinone method for producing hydrogen peroxide, consisting of the method steps of hydrogenation, oxidation, and extraction as well as of drying, regeneration and purification concerning the maximum H2O2 production capacity obtainable in continuous operation (g H2O2 produced per liter working solution). […]
The maximum H2O2 capacity of a working solution consisting of 75 by volume aromatic benzine (C9/C10-alkyl aromatic mixture), 25% by volume tris (2-ethylhexyl) phosphate, 0.12 mol/l 2-ethylanthraquinone, 0.28 mol/l 2-ethyltetrahydroanthraquinone, 0.13 mol/l 2-amylanthraquinone and 0.12 mol/l 2-amyltetrahydroanthraquinone was determined analogously to example 6. […]
The maximum H2O2 capacity of a working solution whose solvent system was based essentially on a C9/C10-aromatic benzine and tetrabutylurea (volumetric ratio AB:TBH approximately 3:1) was determined analogously to example 6 at a hydrogenation temperature of 60° C. […]

Structure (SMILES)	residual quinone content [1] [%]	oxidative degradation under the conditions of the cyclic anthraquinone process [2]
CCc1ccc2c(c1)C(=O)c1ccccc1C2=O [EAQ, 2-ethyl anthraquinone, reference compound]	90	–
CC(C)=CCCc1ccc2c(c1)C(=O)c1ccccc1C2=O [IHEAQ, 2-(4-methyl-3-pentenyl) anthraquinone]	41	not degraded oxidatively more than EAQ
